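Briefly, cells in 96-well plates were exposed to five compound concentrations for 48 h, and endpoints were estimated by linear interpolation. At the TGI there is no net growth.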
Assays:
Assay in all cases: DTP human tumour cell line panel, 48 h
ACHN renal = test system: ACHN renal
EKVX NSCLC = test system: EKVX NSCLC
HCT-116 colon = test system: HCT-116 colon
HOP-92 NSCLC = test system: HOP-92 NSCLC
NCI-H460 lung = test system: NCI-H460 lung
OVCAR-8 ovarian = test system: OVCAR-8 ovarian
PC-3 prostate = test system: PC-3 prostate
RXF 393 renal = test system: RXF 393 renal
SF-268 CNS = test system: SF-268 CNS
UACC-257 melanoma = test system: UACC-257 melanoma

SMILES | TGI (ACHN renal) [µM] | TGI (EKVX NSCLC) [µM] | TGI (HCT-116 colon) [µM] | TGI (HOP-92 NSCLC) [µM] | TGI (NCI-H460 lung) [µM] | TGI (OVCAR-8 ovarian) [µM] | TGI (PC-3 prostate) [µM] | TGI (RXF 393 renal) [µM] | TGI (SF-268 CNS) [µM] | TGI (UACC-257 melanoma) [µM]
Cc1ccc(S(=O)(=O)N2CCN(S(=O)(=O)c3ccc(C)cc3)CCN(S(=O)(=O)c3ccc(C)cc3)Cc3cc(Br)c(Br)cc3CN(S(=O)(=O)c3ccc(C)cc3)CC2)cc1 | > 100 | > 100 | > 100 | 92.4 | > 100 | > 100 | > 100 | > 100 | > 100 | > 100
COc1ccccc1C1c2cc3c(cc2OC(N2CCCC2)C1C)OCO3 (configuration not stated) | > 57.5 | 50.6 | 29.1 | 20.6 | 40.9 | 64 | 32.4 | 36.9 | 30.9 | 48.1
CCCCCCCCCCCCC(O)C(=O)O (configuration not stated) | > 100 | – | > 100 | > 100 | > 100 | > 100 | > 100 | – | – | > 100
O=c1ccc2ccccc2c2ccccc12 | 12.4 | 35.8 | 11.4 | – | 13.8 | 4.61 | – | – | 6.19 | 16.6
C/C(N)=N/OCc1nc(C)no1 | > 100 | > 100 | > 100 | – | > 100 | > 100 | > 100 | > 100 | > 100 | > 100
c1ccc2c(-c3csc(-c4c[nH]c5ccccc45)n3)c[nH]c2c1 | > 100 | > 100 | > 100 | > 100 | > 100 | > 100 | > 100 | > 100 | > 100 | > 100
COc1cc(C(=O)O)c(-c2cc3c(cc2C=O)OCO3)c(OC)c1OC | > 10 | – | > 10 | > 10 | – | > 10 | > 10 | – | > 10 | > 10
CC(C)N(C(=O)C12C3C4C1C1C2C3C41C(=O)N(C(C)C)C(C)C)C(C)C (configuration not stated) | > 50 | > 50 | > 50 | – | > 50 | > 50 | – | – | > 50 | > 50
Cc1ccc(S(=O)(=O)NC(=O)Nc2cc(Cl)c(S(N)(=O)=O)cc2S(N)(=O)=O)cc1 | – | > 100 | > 100 | > 100 | – | > 100 | – | > 100 | > 100 | > 100
O=[N+]([O-])/C=C/c1cn(CCCCCCCCCCCCn2cc(/C=C/[N+](=O)[O-])c3ccccc32)c2ccccc12 | > 100 | > 100 | > 100 | > 100 | > 100 | > 100 | > 100 | – | – | > 100
CC(=O)NCCCCN(CCCNC(C)=O)C(=O)OCc1ccccc1 | > 100 | > 100 | > 100 | > 100 | > 100 | > 100 | > 100 | > 100 | > 100 | > 100
c1cc(CN2CCNCCNCCNCC2)cc(CN2CCNCCNCCNCC2)c1 | > 100 | > 100 | > 100 | – | > 100 | > 100 | > 100 | – | > 100 | > 100
c1n[nH]cc1C12C3C4C5C3C1C5C42 (configuration not stated) | > 100 | > 100 | > 100 | > 100 | – | > 100 | > 100 | > 100 | > 100 | > 100
C/C(=N\NC(=S)Nc1ccc([N+](=O)[O-])cc1)c1nc2ncccc2[nH]1 | – | 3.2 | 6.12 | 18 | 3.31 | 1.71 | 16.9 | – | > 100 | 2.96
CCC(=O)C(CCN1CCC(N2C(=O)C(CCC#N)c3ccccc32)CC1)(c1ccccc1)c1ccccc1 (configuration not stated) | 43.8 | – | 17 | – | 26.9 | 23.6 | 43.2 | 16.2 | 34.5 | 26.7
CN(C)CC(/C(Cc1ccccc1)=N\NC(=S)NN)c1ccccc1 (configuration not stated) | > 100 | – | > 100 | > 100 | > 100 | > 100 | – | > 100 | > 100 | > 100
CSc1c(C#N)c(S)n(-c2ccc(Cl)cc2)c(=O)c1C#N | – | > 100 | > 100 | – | > 100 | > 100 | > 100 | > 100 | > 100 | > 100
O=C(O)Cc1cccc2c(=O)c3cccc([N+](=O)[O-])c3[nH]c12 | > 100 | – | > 100 | > 100 | > 100 | > 100 | > 100 | – | – | > 100
COc1cc(-c2cc(=O)c3ccccc3[nH]2)cc(OC)c1OC | > 75 | > 75 | > 75 | – | > 75 | > 75 | – | > 75 | > 75 | > 75
CN(C)C(F)=PC(F)(F)F (configuration not stated) | > 100 | > 100 | > 100 | > 100 | > 100 | > 100 | – | > 100 | > 100 | > 100
O=C1/C(=C/c2cccs2)NC(=S)N1CN1CCCCC1 | > 100 | > 100 | > 100 | > 100 | – | > 100 | > 100 | – | > 100 | –
O=C(Nc1ccc2[nH]c(C(=O)N3CC(CCl)c4ccc([N+](=O)[O-])cc43)cc2c1)c1cc2ccccc2o1 (configuration not stated) | – | > 1100 | > 1100 | > 1100 | > 1100 | > 1100 | – | > 1100 | > 1100 | > 1100
CNC(=O)N1N[C@H](c2ccccc2)[C@@H]1c1ccccc1 | > 100 | 85.6 | 36.3 | 91.2 | 53.4 | 29.9 | 99.1 | 36.6 | – | > 100
CSC(=N)N1N=C2/C(=C/c3ccccc3)CCC[C@H]2[C@H]1c1ccccc1 | 11.8 | 19.4 | 9.83 | 19.5 | 20.1 | 24.8 | – | 9.85 | 37.9 | 6.92

SMILES | TGI (ACHN renal) [µM] | TGI (EKVX NSCLC) [µM] | TGI (HCT-116 colon) [µM] | TGI (HOP-92 NSCLC) [µM] | TGI (NCI-H460 lung) [µM] | TGI (OVCAR-8 ovarian) [µM] | TGI (PC-3 prostate) [µM] | TGI (RXF 393 renal) [µM] | TGI (SF-268 CNS) [µM] | TGI (UACC-257 melanoma) [µM]
Oc1cccnc1/C=N/OCc1ccccc1 | > 100 | > 100 | > 100 | – | > 100 | > 100 | – | 72.8 | > 100 | > 100
COC(=O)CCC(NC(=S)N/N=C(\C)c1cnccn1)C(=O)OC (configuration not stated) | > 100 | > 100 | > 100 | > 100 | > 100 | > 100 | – | > 100 | > 100 | > 100
O=C(O)C12CC3CC(CC(F)(C3)C1)C2 | > 100 | > 100 | > 100 | > 100 | > 100 | > 100 | – | > 100 | – | > 100
COCCOCOC(C)(C)[C@H](CCO)O[Si](c1ccccc1)(c1ccccc1)C(C)(C)C | 18.9 | 29.5 | 14.1 | 23.6 | 22.3 | 23.5 | – | 17.8 | 22.5 | 23.5
C/C(N=NS(=O)(=O)c1ccc(C)cc1)=C1\C=CC=CN1O | > 100 | > 100 | > 100 | > 100 | > 100 | > 100 | – | – | > 100 | > 100
C[C@@]1(OC(=O)c2cc([N+](=O)[O-])cc([N+](=O)[O-])c2)C[C@@H]2CCCC[C@@H]21 | > 100 | > 100 | > 100 | – | > 100 | > 100 | > 100 | – | > 100 | > 100
BrCc1ccc(CBr)c2c1-c1c(CBr)ccc3ccc(CBr)c-2c13 | > 100 | > 100 | > 100 | > 100 | > 100 | > 100 | > 100 | – | > 100 | > 100
O=C(Nc1nc2ncn(CCO)c2c(=O)[nH]1)c1ccccc1 | > 100 | > 100 | > 100 | > 100 | > 100 | > 100 | – | > 100 | > 100 | > 100
C[C@H](NC(=O)CNC(=O)CCCCCC(=O)NCC(=O)N[C@@H](C)C(=O)OCc1ccccc1)C(=O)OCc1ccccc1 | > 100 | > 100 | > 100 | > 100 | – | > 100 | > 100 | > 100 | > 100 | > 100
C=CCNC(=O)CN(CC(=O)O)C1CCCCC1N(CC(=O)O)CC(=O)O (configuration not stated) | > 100 | – | > 100 | > 100 | > 100 | > 100 | > 100 | > 100 | > 100 | > 100
O=c1cc(CNC2CC3CCC2C3)[nH]c(=O)[nH]1 (configuration not stated) | > 100 | > 100 | > 100 | – | > 100 | > 100 | > 100 | > 100 | > 100 | > 100
COC(=O)c1ccc(C=C(C#N)C#N)cc1 | 56.9 | > 100 | 31.5 | 39.6 | > 100 | 56.5 | – | – | 59.1 | –
COC(=O)[C@@]1(NC(=O)C(CC(=O)OC(C)(C)C)NC(=O)OC(C)(C)C)C[C@H]1C (some centres not stated) | > 100 | > 100 | > 100 | – | > 100 | > 100 | > 100 | > 100 | > 100 | > 100
Cc1ccc(/N=N/C(=NNC(=O)c2ccc(C)cc2)c2ccc(N(C)C)cc2)cc1 | 92.4 | > 100 | 68.2 | 80.2 | 80.3 | > 100 | > 100 | – | > 100 | 60
O=c1ccn(/C=C/C(O)C(O)CO)c(=O)[nH]1 (configuration not stated) | > 100 | > 100 | > 100 | – | – | > 100 | – | – | > 100 | > 100
CS(=O)(=O)C1(Br)S(=O)(=O)OCCOS1(=O)=O | > 100 | > 100 | > 100 | > 100 | > 100 | > 100 | – | > 100 | > 100 | > 100
CCOP(=O)(OCC)C(Cc1ccc(Cl)cc1)NS(=O)(=O)c1ccc(C)cc1 (configuration not stated) | > 100 | > 100 | – | > 100 | > 100 | > 100 | > 100 | > 100 | > 100 | > 100
CSc1ccc2c(cc1=O)C(NC(=O)c1ccc(C#N)cc1)CCc1cc(O)c(O)c(O)c1-2 (configuration not stated) | > 100 | > 100 | 32.5 | – | 73.3 | 99.7 | – | – | > 100 | 37
Cc1ccc(/C=C2\Cc3cc(C)c(C)cc3C2=O)c(C(=O)O)c1 | > 100 | > 100 | > 100 | – | > 100 | > 100 | > 100 | > 100 | > 100 | > 100
O=C1CSC(c2ccccc2O)N1c1ccc(Oc2ccc(Cl)cc2)c(Cl)c1 (configuration not stated) | 94 | 45.9 | 28.6 | 39.1 | 43.6 | 74.6 | 60 | – | 31.4 | 81.4
S=C(N/N=C/c1ccccn1)N1CCCCCC1 | 1.53 | 4.04 | – | > 100 | 0.211 | 12.7 | > 100 | 5.01 | – | 0.169
NC(=O)c1sc2nc3ccccc3n2c1N | > 100 | > 100 | > 100 | > 100 | – | > 100 | > 100 | 74.8 | > 100 | > 100
N#Cc1c(-c2ccccc2)cc(-c2ccccc2)n(C2OCC(O)C(O)C2O)c1=S (configuration not stated) | 38.1 | 90.2 | 28.4 | – | 70.6 | 43.7 | 29.4 | 35.6 | 80 | 75.4
Nc1nc2ncn(CC(O)CO)c2c(=O)[nH]1 (configuration not stated) | > 100 | > 100 | > 100 | > 100 | > 100 | > 100 | – | > 100 | > 100 | > 100

Reference: PubChem BioAssay (NCI)
